The values below come from patent US8835425B2, “Use of selective GABA A α5 negative allosteric modulators for the treatment of central nervous system conditions” (Hoffmann-La Roche Inc., priority 2010, dated 2014).

Each structure is given as a SMILES string.

The data set has as its system Nf1+/− mice and control mice (B16;129F1). Kind of data set: Rotarod, accelerating speeds, Nf1+/− and control mice. The following applies: Nf1+/− mutant or control mice, 1 mg/kg i.p. The class given is in vivo. The protocol: Control mice (B16;129F1) and Nf1+/− mice were treated with vehicle or with 8581 (n=10 for each of the 4 groups). 30 minutes after i.p. injection of 8581 (1 mg/kg) or vehicle, mice were tested with a rotarod protocol using accelerating speeds (4-40 rpm, maximal duration 300 s) for four trials with 30 min intertrial interval. FIG. 22 visualizes performance of control mice in the Rotarod and FIG. 23 illustrates the performance of Nf1+/− mice in the Rotarod.
A general note: Falling from the rotarod earlier than controls is read as motor impairment.

Consider `FC(F)c1ncn2c1Cn1ncnc1-c1cc(Br)ccc1-2` [Compound 8581, 3-Bromo-10-difluoromethyl-9H-imidazo[1,5-a][1,2,4]triazolo[1,5-d][1,4]benzodiazepine], for which the performance in rotarod entry is given as “did not affect the performance”.
